Laboratory results as given in article PMC9775191, “A Subset Screen of the Compounds Australia Scaffold Library Identifies 7-Acylaminodibenzoxazepinones as Potent and Selective Hits for Anti-Giardia Drug Discovery” (Biomedicines, 2022).

System: G. duodenalis BRIS/91/HEPU/1279
Experiment: Primary Giardia screen at 10 µM (live-cell imaging, automated counting)
Format: cell-based, Giardia duodenalis
Details: for % Inhibition n=1 48h / % Inhibition n=1 24h: first singlicate assay; for % Inhibition n=2 24h / % Inhibition n=2 48h: re-assessment
Procedure, shortened: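 Compound added to 10 μM final in medium with 0.2% DMSO, one well each; plates then held in sealed chambers at 3% O2, 5% CO2 in N2; growth imaged and counted automatically at 24 and 48 h; values normalised to vehicle wells minus media blank.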

Structure (SMILES)	% Inhibition n=1 48h [%]	other results
COC(=O)c1ccccc1NC(=O)Nc1ccc2[nH]c3c(c2c1)CN(C(C)C)CC3 [SN00798231]	4.3	
Cc1nc(-n2nc(C)c(Cc3ccccc3Cl)c2C)sc1C(=O)NC(C)C [SN00786185]	0.0	
CCCCOc1ccc(CNC(=O)C2CCN(c3nccc4sc(C)cc34)CC2)cc1 [SN00797785]	27.9	
CCn1c(Cn2cccn2)nc2cc(NC(C)=O)ccc21 [SN00786137]	11.6	
Cc1sc2cc(-c3ccccc3)oc2c1C(=O)NCc1ccccc1 [SN00796296]	20.2	
Cc1cccc(NC(=O)C2CCCN(c3c([N+](=O)[O-])c(C)nn3C)C2)n1 (stereo not drawn) [SN00775639]	0.0	
COc1ccccc1CNC(=O)CCN1C(=O)c2ccccc2C1=O [SN00807762]	30.7	
O=C1O[C@@H]2C[C@H]3C[C@@H]2[C@@H]1[C@H]3C(=O)Nc1ccc(C(=O)N2CC=C(c3ccccc3)CC2)cc1 [SN00785926]	11.8	
CCCn1cc(S(=O)(=O)c2ccc(OC)cc2)c(=O)c2cc(F)c(N3CCC(C)CC3)cc21 [SN00787795]	0.0	
COC(=O)C(C)n1cnc2c(nnn2Cc2ccccc2F)c1=O (stereo not drawn) [SN00802558]	11.4	
COCCn1cc2c3c(cccc31)CN(C(=O)Nc1ccccc1F)CC2 [SN00798581]	22.0	
Fc1ccc(C2=NC(c3cccs3)=Nc3cc(Cl)ccc3N2)cc1 [SN00785914]	0.0	
CC(C)(C)c1nc(CN2CCCN(C(=O)CCCNC(=O)NC3CCCCC3)CC2)no1 [SN00780682]	11.6	
Cc1oc(C2CCC2)nc1C(=O)NC(C)c1ccccn1 (stereo not drawn) [SN00802442]	17.0	
COc1ccc(NC(=O)c2cn(-c3ccc(-c4noc(C5CCCC5)n4)cc3)nc2C)cc1OC [SN00789967]	25.5	
Cc1ccc(NC(=O)Nc2ccc3c(c2)CN(Cc2ccccc2)C3)c(C)c1 [SN00796327]	41.2	
COc1ccc(-n2c(CN3CCN(S(=O)(=O)c4cc(C)ccc4C)CC3)nc3cccnc32)cc1 [SN00796116]	13.7	
CC1CN(c2nc3c(c(=O)[nH]c(=O)n3C)n2CC(=O)O)CC(C)O1 (stereo not drawn) [SN00776554]	4.6	
Cn1cccc1C1CCCCCN1C(=O)CCSCc1nc2sc3c(c2c(=O)[nH]1)CCC3 (stereo not drawn) [SN00778065]	67.7	Average % Inhibition 24h: 0.2%; % Inhibition n=1 24h: 0.0%; % Inhibition n=2 24h: 0.4%; Average % Inhibition 48h: 38.7%; % Inhibition n=2 48h: 9.8%
COCCc1ccc(Oc2nnnn2-c2ccccc2)cc1 [SN00775761]	24.6	
CC1(c2ccco2)NC(=O)N(NC(=O)c2sc3ccccc3c2Cl)C1=O (stereo not drawn) [SN00771283]	16.0	
CCN1CCN(C(=O)c2ccc(N3CCCC3=O)cc2)CC1 [SN00784919]	8.8	
Cc1ccccc1NC(=O)c1nc(S(C)(=O)=O)ncc1N(Cc1ccco1)Cc1sccc1C [SN00786086]	11.7	
Cc1nn(-c2nc(-c3ccccc3)cs2)c(O)c1CC(=O)N1CCN(c2ccc(F)cc2)CC1 [SN00786652]	0.0	
Cn1ccc2c(cc(C(=O)N3CCC(N4CCCCC4)CC3)n2C)c1=O [SN00797819]	18.7	
Cc1sc(C(=O)N2CCCC2)c2ncnc(NCc3cccc(Cl)c3)c12 [SN00803183]	47.9	Average % Inhibition 24h: 15.6%; % Inhibition n=1 24h: 29.7%; % Inhibition n=2 24h: 1.5%; Average % Inhibition 48h: 27.6%; % Inhibition n=2 48h: 7.3%
CC1CCC(NC(=O)c2ccc(-c3noc(C4CCN(C(=O)c5ccccc5)CC4)n3)cc2)CC1 (stereo not drawn) [SN00797379]	0.0	
CN1C(=O)c2cc(NC(=O)c3ccc4c(c3)OCO4)ccc2N2CCN=C12 [SN00784190]	31.6	
COc1ccc(-c2nc(CN3C(=O)C(=O)N(C(C)C)C3=O)cs2)cc1 [SN00769384]	0.0	
